Measured values from patent publication US12540120B2, “Herbicidal compounds” (SYNGENTA CROP PROTECTION AG, priority 2019, dated 2026).

How the values were obtained:
Assay type in all cases: in vivo
[1] = system: Echinochloa crus-galli (ECHCG); experiment: B5 Pre-Emergence Efficacy—Test 2; parameters: key: 5-point scale: 5=80-100%, 4=60-79%, 3=40-59%, 2=20-39%, 1=0-19% damage; conditions: 250 g/ha, evaluated after 13 days
Protocol: (§1) B5 Pre-Emergence Efficacy—Test 2 Seeds of a variety of test species were sown in standard soil in pots: Solanum nigrum (SOLNI), Amaranthus retoflexus (AMARE), Setaria faberi (SETFA), Echinochloa crus-galli (ECHCG), Ipomoea hederacea (IPOHE), Lolium perenne (LOLPE). After cultivation for one day (pre-emergence) under controlled conditions in a glasshouse (at 24/16° C., day/night; 14 hours light; 65% humidity), the plants were sprayed with an aqueous spray solution derived from the formulation of the technical active ingredient in acetone/water (50:50) solution containing 0.5% Tween 20 (polyoxyethelyene sorbitan monolaurate, CAS RN 9005-64-5). Compounds are applied at 250 g/ha. The test plants were then grown in a glasshouse under controlled conditions (at 24/16° C., day/night; 14 hours light; 65% humidity) and watered twice daily. After 13 days, the test is evaluated for the percentage damage caused to the plant. The biological activities are assessed on a five point scale (5=80-100%; 4=60-79%; 3=40-59%; 2=20-39%; 1=0-19%). A blank value in the table is indicative that the compound was not tested on that species.

Setaria faberi (SETFA) [2] = experiment: B5 Pre-Emergence Efficacy—Test 2; parameters: key: 5-point scale: 5=80-100%, 4=60-79%, 3=40-59%, 2=20-39%, 1=0-19% damage; conditions: 250 g/ha, evaluated after 13 days
Protocol: as §1

[3] = system: Ipomoea hederacea (IPOHE); experiment: B5 Pre-Emergence Efficacy—Test 2; parameters: key: 5-point scale: 5=80-100%, 4=60-79%, 3=40-59%, 2=20-39%, 1=0-19% damage; conditions: 250 g/ha, evaluated after 13 days
Protocol: as §1

Lolium perenne (LOLPE) [4] = experiment: B5 Pre-Emergence Efficacy—Test 2; parameters: key: 5-point scale: 5=80-100%, 4=60-79%, 3=40-59%, 2=20-39%, 1=0-19% damage; conditions: 250 g/ha, evaluated after 13 days
Protocol: as §1

Solanum nigrum (SOLNI) [5] = experiment: B2 Post-Emergence Efficacy—Test 2; conditions: post-emergence application, 250 g/ha, evaluated after 13 days (Test 2)
Protocol: (§2) B2 Post-Emergence Efficacy—Test 2 Seeds of a variety of test species are sown in standard soil in pots:—Solanum nigrum (SOLNI), Amaranthus retoflexus (AMARE), Setaria faberi (SETFA), Echinochloa crus-galli (ECHCG), Ipomoea hederacea (IPOHE), Lolium perenne (LOLPE). After 8 days cultivation (post-emergence) under controlled conditions in a glasshouse (at 24/16° C., day/night; 14 hours light; 65% humidity), the plants are sprayed with an aqueous spray solution derived from the formulation of the technical active ingredient in acetone/water (50:50) solution containing 0.5% Tween 20 (polyoxyethylene sorbitan monolaurate, CAS RN 9005-64-5). Compounds are applied at 250 g/ha. The test plants are then grown in a glasshouse under controlled conditions in a glasshouse (at 24/16° C., day/night; 14 hours light; 65% humidity) and watered twice daily. After 13 days, the test is evaluated for the percentage damage caused to the plant. The biological activities are assessed on a five point scale (5=80-100%; 4=60-79%; 3=40-59%; 2=20-39%; 1=0-19%). A blank value in the table is indicative that the compound was not tested on that species.

[6] = system: Echinochloa crus-galli (ECHCG); experiment: B2 Post-Emergence Efficacy—Test 2; conditions: post-emergence application, 250 g/ha, evaluated after 13 days (Test 2)
Protocol: as §2

[7] = system: Amaranthus retoflexus (AMARE); experiment: B2 Post-Emergence Efficacy—Test 2; conditions: post-emergence application, 250 g/ha, evaluated after 13 days (Test 2)
Protocol: as §2

Setaria faberi (SETFA) [8] = experiment: B2 Post-Emergence Efficacy—Test 2; conditions: post-emergence application, 250 g/ha, evaluated after 13 days (Test 2)
Protocol: as §2

[9] = system: Ipomoea hederacea (IPOHE); experiment: B2 Post-Emergence Efficacy—Test 2; conditions: post-emergence application, 250 g/ha, evaluated after 13 days (Test 2)
Protocol: as §2

Lolium perenne (LOLPE) [10] = experiment: B2 Post-Emergence Efficacy—Test 2; conditions: post-emergence application, 250 g/ha, evaluated after 13 days (Test 2)
Protocol: as §2

Solanum nigrum (SOLNI) [11] = experiment: B5 Pre-Emergence Efficacy—Test 2; conditions: 250 g/ha, evaluated after 13 days
Protocol: as §1

[12] = system: Amaranthus retoflexus (AMARE); experiment: B5 Pre-Emergence Efficacy—Test 2; conditions: 250 g/ha, evaluated after 13 days
Protocol: as §1

Compound | Control of weed species after pre-emergence application, ECHCG (percentage damage, five point scale) [1] | Control of weed species after pre-emergence application, SETFA (percentage damage, five point scale) (Setaria faberi (SETFA) [2]) | Control of weed species after pre-emergence application, IPOHE (percentage damage, five point scale) [3] | Control of weed species after pre-emergence application, LOLPE (percentage damage, five point scale) (Lolium perenne (LOLPE) [4]) | percentage damage caused to the plant, five point scale, SOLNI (Solanum nigrum (SOLNI) [5]) | percentage damage caused to the plant, five point scale, ECHCG [6] | percentage damage caused to the plant, five point scale, AMARE [7] | percentage damage caused to the plant, five point scale, SETFA (Setaria faberi (SETFA) [8]) | percentage damage caused to the plant, five point scale, IPOHE [9] | percentage damage caused to the plant, five point scale, LOLPE (Lolium perenne (LOLPE) [10]) | Control of weed species after pre-emergence application, SOLNI (percentage damage, five point scale) (Solanum nigrum (SOLNI) [11]) | Control of weed species after pre-emergence application, AMARE (percentage damage, five point scale) [12]
Cc1nn(C)c(=O)c(-c2c(F)ccc(Cl)c2CCc2ccc(C(=O)O)cc2)c1O [Compound A-1.040] | 0 | 0 | 0 | 0 | 3 (3=40-59%) | 0 | 3 (3=40-59%) | 0 | 0 | 0 | 0 | 0
COC(=O)c1ccc(CCc2c(Cl)ccc(F)c2-c2c(O)c(C)nn(C)c2=O)cc1 [Compound A-1.041] | 0 | 0 | 0 | 0 | 5 (5=80-100%) | 1 (1=0-19%) | 5 (5=80-100%) | 4 (4=60-79%) | 2 (2=20-39%) | 1 (1=0-19%) | 0 | 4 (4=60-79%)
Cc1nn(C)c(=O)c(-c2c(F)ccc(Cl)c2CCc2ccc(NC(=O)OC(C)(C)C)c(F)c2)c1O [Compound A-1.042] | 2 (2=20-39%) | 5 (5=80-100%) | 2 (2=20-39%) | 1 (1=0-19%) | 5 (5=80-100%) | 5 (5=80-100%) | 5 (5=80-100%) | 5 (5=80-100%) | 3 (3=40-59%) | 5 (5=80-100%) | 5 (5=80-100%) | 5 (5=80-100%)
CC(=O)Nc1cc(CCc2c(Cl)ccc(F)c2-c2c(O)c(C)nn(C)c2=O)ccn1 [Compound A-1.044] | 3 (3=40-59%) | 5 (5=80-100%) | 1 (1=0-19%) | 2 (2=20-39%) | 5 (5=80-100%) | 3 (3=40-59%) | 5 (5=80-100%) | 5 (5=80-100%) | 0 | 4 (4=60-79%) | 5 (5=80-100%) | 5 (5=80-100%)
Cc1nc(-c2ccc(CCc3c(Cl)ccc(F)c3-c3c(O)c(C)nn(C)c3=O)cc2)cs1 [Compound A-1.383] | 4 (4=60-79%) | 4 (4=60-79%) | 5 (5=80-100%) | 3 (3=40-59%) | 5 (5=80-100%) | 5 (5=80-100%) | 5 (5=80-100%) | 5 (5=80-100%) | 5 (5=80-100%) | 5 (5=80-100%) | 5 (5=80-100%) | 5 (5=80-100%)
Cc1nn(C)c(=O)c(-c2c(F)ccc(Cl)c2CCc2ccc(-c3cccs3)cc2)c1O [Compound A-1.384] | 0 | 0 | 2 (2=20-39%) | 0 | 5 (5=80-100%) | 3 (3=40-59%) | 5 (5=80-100%) | 5 (5=80-100%) | 5 (5=80-100%) | 4 (4=60-79%) | 1 (1=0-19%) | 2 (2=20-39%)
Cc1nn(C)c(=O)c(-c2c(F)ccc(Cl)c2CCc2ccc(-n3cncn3)cc2)c1O [Compound A-1.385, 4-[3-chloro-6-fluoro-2-[2-[4-(1,2,4-triazol-1-yl)phenyl]ethyl]phenyl]-5-hydroxy-2,6-dimethyl-pyridazin-3-one] | 5 (5=80-100%) | 5 (5=80-100%) | 5 (5=80-100%) | 5 (5=80-100%) | 5 (5=80-100%) | 5 (5=80-100%) | 5 (5=80-100%) | 5 (5=80-100%) | 5 (5=80-100%) | 5 (5=80-100%) | 5 (5=80-100%) | 5 (5=80-100%)
Cc1nn(C)c(=O)c(-c2c(F)ccc(Cl)c2/C=C/c2cccc(C#N)c2)c1O [Compound A-2.030] | 0 | 0 | 0 | 0 | 4 (4=60-79%) | 0 | 3 (3=40-59%) | 0 | 4 (4=60-79%) | 1 (1=0-19%) | 0 | 0
